Entries after “also recorded” stand apart in the source; their conditions may differ. Where two headings read alike, the source gives them in different places. Values belong to the compound of their own block, whether it stands above or below them.
Key:
[1] = target: T1, rat liver TrxR (Rattus norvegicus, UniProt O89049); test: Thioredoxin reductase inhibition, DTNB reduction assay
T1 sequence (O89049 1-499): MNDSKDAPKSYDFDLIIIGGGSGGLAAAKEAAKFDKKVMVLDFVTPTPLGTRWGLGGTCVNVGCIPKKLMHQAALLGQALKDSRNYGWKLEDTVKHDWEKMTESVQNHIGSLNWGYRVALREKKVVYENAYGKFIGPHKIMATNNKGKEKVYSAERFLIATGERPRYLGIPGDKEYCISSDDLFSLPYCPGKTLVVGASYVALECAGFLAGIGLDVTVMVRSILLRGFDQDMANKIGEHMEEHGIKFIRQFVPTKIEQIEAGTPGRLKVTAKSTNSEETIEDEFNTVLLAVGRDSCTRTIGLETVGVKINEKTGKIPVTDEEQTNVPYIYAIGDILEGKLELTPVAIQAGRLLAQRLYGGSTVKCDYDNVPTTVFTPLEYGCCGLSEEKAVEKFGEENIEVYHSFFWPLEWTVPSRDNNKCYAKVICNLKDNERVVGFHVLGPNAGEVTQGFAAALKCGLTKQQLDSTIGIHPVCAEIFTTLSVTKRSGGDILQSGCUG
Description: Thioredoxin reductase inhibition assay. Assay was performed according to the protocol provided by the manufacturer. […] Compounds of interest were serially diluted at the separate 96-well plate and 4 μl of each concentration was added to the appropriate wells. The reaction mixture was incubated with gentle shaking (room temperature, 30 minutes). Subsequently, 6 μl of DNTB (100 mM) was added and incubated for an additional 3 minutes.
Compounds of interest at six different concentrations were incubated with the isolated rat liver TrxR enzyme in the presence of NADPH for 30 minutes, followed by 2 minutes incubation with the DNTB reagent.

[2] = tested on: AC10 (human ventricular cardiomyocytes); test: MTT toxicity assay in cardiomyocytes AC10
Description: (§1) Cell lines and culture conditions. Human ovarian carcinoma cells A2780 and A2780cisR, and human breast adenocarcinoma MDA-MB-231 cells, murine hepatocytes TAMH and human cardiomyocytes AC10 were obtained from ATCC.
Inhibition of cell viability assay. The cytotoxicity of the compounds was determined by colorimetric MTT assay. The cells were harvested from culture flasks by trypsinization and seeded into Cellstar 96-well microculture plates at the seeding density of 6000 cells per well (6×10^4 cells/mL). TAMH and AC10 cells were seeded at 12000 and 5000 cells per well, respectively. After cells were allowed to resume exponential growth for 24 hours, they were exposed to drugs at different concentrations in media for 72 hours. The drugs were diluted in complete medium at the desired concentration and added to each well (100 μL) and serially diluted to other wells. After exposure for 72 hours, the media was replaced with MTT in media (5 mg/mL, 100 μL) and incubated for additional 45 minutes. Subsequently, the medium was aspirated and the purple formazan crystals formed in viable cells were dissolved in DMSO (100 μL). Optical densities were measured at 570 nm using the BioTek H1 Synergy microplate reader. […] Evaluation was based on means from at least three independent experiments, each comprising six replicates per concentration level. For experiments with inhibitors, MDA-MB-231 cells were seeded at the seeding density of 8000 cells per well (8×10^4 cells/mL).

[3] = tested on: A2780cisR (ovarian carcinoma); test: MTT cytotoxicity assay, A2780cisR; conditions: for RF (Resistance Factor): IC50 (A2780cisR)/IC50 (A2780); for EC50: read-out: EC50 A2780cisR
Description: (§2) Human ovarian carcinoma cells A2780 and A2780cisR, and human breast adenocarcinoma MDA-MB-231 cells, murine hepatocytes TAMH and human cardiomyocytes AC10 were obtained from ATCC. […] The stock of cisplatin was commercially available clinical grade solution in saline buffer.
(§3) Inhibition of cell viability assay. The cytotoxicity of the compounds was determined by colorimetric MTT assay. The cells were harvested from culture flasks by trypsinization and seeded into Cellstar 96-well microculture plates at the seeding density of 6000 cells per well (6×10^4 cells/mL). TAMH and AC10 cells were seeded at 12000 and 5000 cells per well, respectively. After cells were allowed to resume exponential growth for 24 hours, they were exposed to drugs at different concentrations in media for 72 hours. The drugs were diluted in complete medium at the desired concentration and added to each well (100 μL) and serially diluted to other wells. After exposure for 72 hours, the media was replaced with MTT in media (5 mg/mL, 100 μL) and incubated for additional 45 minutes. Subsequently, the medium was aspirated and the purple formazan crystals formed in viable cells were dissolved in DMSO (100 μL). Optical densities were measured at 570 nm using the BioTek H1 Synergy microplate reader. […] Evaluation was based on means from at least three independent experiments, each comprising six replicates per concentration level.

[4] = tested on: MDA-MB-231 cells; test: Annexin V/PI apoptosis assay; conditions: MDA-MB-231, 24 hours, equipotent concentrations
Description: Annexin V/PI apoptosis assay. MDA-MB-231 cells were seeded into Cellstar 12-well plates (Greiner Bio-One) at a density of 20×10^4 cells/well (1 mL per well). […] After the supernatant solution was collected in 1.5 mL microtubes, the cells were washed with 100 μl of trypsin, which was combined with the supernatant. Subsequently, cells were trypsinized with 200 μl trypsin for 5 minutes at 37° C., 5% CO2, washed with 200 μl of PBS and combined with the supernatant. The cells were centrifuged at 2.5×10^3 rpm for 5 minutes and the pellets were washed once with PBS and resuspended in 500 μl of Annexin V binding buffer and stained with Annexin V-FITC and PI reagents. The fluorescence was immediately analyzed by flow cytometry. The resulting dot blots were acquired from 10000 events and quantified using Flowjo software (Flowjo LLC, Ashland, Oreg., USA).
MDA-MB-231 cells were treated with the compounds of interest at equipotent concentrations, corresponding to their IC50 values (FIG. 57).

[5] = tested on: A2780 (ovarian carcinoma); test: MTT cytotoxicity assay, A2780; conditions: read-out: EC50 A2780
Description: as §2, §3

[6] = tested on: TAMH (transforming growth factor-a transgenic mouse hepatocytes); test: MTT toxicity assay in hepatocytes TAMH; conditions: read-out: EC50 TAMH, exposure time 72 hours
Description: as §1
Inhibition of cell viability assay. The cytotoxicity of the compounds was determined by colorimetric MTT assay. The cells were harvested from culture flasks by trypsinization and seeded into Cellstar 96-well microculture plates at the seeding density of 6000 cells per well (6×10^4 cells/mL). TAMH and AC10 cells were seeded at 12000 and 5000 cells per well, respectively. After cells were allowed to resume exponential growth for 24 hours, they were exposed to drugs at different concentrations in media for 72 hours. The drugs were diluted in complete medium at the desired concentration and added to each well (100 μL) and serially diluted to other wells. After exposure for 72 hours, the media was replaced with MTT in media (5 mg/mL, 100 μL) and incubated for additional 45 minutes. Subsequently, the medium was aspirated and the purple formazan crystals formed in viable cells were dissolved in DMSO (100 μL). Optical densities were measured at 570 nm using the BioTek H1 Synergy microplate reader. […] Evaluation was based on means from at least three independent experiments, each comprising six replicates per concentration level. […]

[7] = tested on: MDA-MB-231 (breast adenocarcinoma); test: MTT cytotoxicity assay, MDA-MB-231; conditions: for EC50: read-out: EC50 MDA-MB-231
Description: as §2, §3

[8] = tested on: MDA-MB-231 cells; test: Cellular accumulation of Au by ICP-MS; conditions: ICP-MS after 24 hour exposure at 1.4 μM
Description: Cellular accumulation of Au complexes was determined in MDA-MB-231 cells. Cells were seeded into Cellstar 6-well plates (Greiner Bio-one) at a density of 60×10^4 cells/well (2 mL per well). After the cells were allowed to resume exponential growth for 24 hours, they were exposed to compounds of interest at various concentrations for 24 hours at 37° C. The cells were washed twice with 1 mL of PBS and lysed with RIPA lysis buffer for 5-10 min at 4° C. The cell lysates were scraped from the wells and transferred to separate 1.5 mL microtubes. The supernatant was then collected after centrifugation (13000 rpm, 4° C. for 15 minutes) and total protein content of each sample was quantified via Bradford's assay. […] The resulting solution was diluted to 1 mL (2-4% v/v HNO3) with ultrapure Milli-Q water. Au content of each sample was quantified by ICP-MS. Re was used as an internal standard. […] Metal standards for calibration curve (0, 0.5, 1, 2, 5, 10, 20, 40 ppb) were freshly prepared before each measurement. All readings were made in triplicates in He mode.

[9] = Stability in ammonium carbonate buffer by high resolution ESI-MS; conditions: ammonium carbonate buffer pH 7.4, 37° C., 1, 3 and 24 hours
Description: NMR and mass spectrometric (MS) methods were employed to characterize the stability of Au complexes in DMSO and aqueous media. ^1H NMR stability studies were performed over the period of 6-10 days in d^6-DMSO and D2O (1met*).

[10] = Reactivity towards glutathione, ligand release (HR-MS, UV-vis); format: physicochemical; conditions: with GSH; HR-MS and UV-vis
Description: NMR- and MS-based stability studies.
Intriguingly, the reactivity of Au^III-metformin complexes towards GSH was drastically different despite their similar structures.

[11] = tested on: MDA-MB-231 (breast adenocarcinoma)
Description: as §2, §3

[12] = tested on: MDA-MB-231 tumors; conditions: 250 mg/kg; cited from earlier work
[13] = Cyclic voltammetry
Description: Cyclic voltammetry and spectroelectrochemistry. Cyclic voltammetry experiments with approximately 0.5 mM solutions of investigated gold complexes in 0.1 M nBu4NPF6 supporting electrolyte in dimethylsulphoxide (DMSO) or in pH 7 buffered solutions were performed under argon atmosphere using a three-electrode arrangement with glassy carbon 1 mm disc working electrode (from lonode, Australia), platinum wire as counter electrode, and silver wire as pseudo-reference electrode. Ferrocene (Fc) served as the internal potential standard for DMSO and potassium hexacyanoferrate(II) for aqueous solutions. […] The cell was positioned in the CUV-UV Cuvette Holder (Ocean Optics) connected to the diode-array UV-vis-NIR spectrometer by optical fibres. UV-vis-NIR spectra were processed using the AvaSoft 7.7 software package. Halogen and deuterium lamps were used as light sources (Avantes, Model AvaLight-DH-S-BAL).

[14] = tested on: AMPK-mTOR energy signaling pathway; conditions: MDA-MB-231, 0.5×-2×EC50, 2, 6, 24 hours
Description: Western blotting. MDA-MB-231 cells were seeded into Cellstar 6-well plates (Greiner Bio-One) at a density of 60×10^4 cells/well (2 mL per well). After the cells were allowed to resume exponential growth for 24 hours, they were exposed to compounds of interest at various concentrations for 2, 6 and 24 hours. The cells were washed twice with PBS and lysed with RIPA buffer (50-100 μL) and kept for 5-10 minutes at 4° C. The samples were sonicated in ice bath (3 times for 30 seconds). […] Equal quantities of protein (50 μg) were reconstituted in loading buffer (5× Laemmli Buffer with 5% DTT) and heated at 100° C. for 10 minutes. […] The protein bands were visualised with Ponceau S stain solution and the nitrocellulose membranes were cut into strips based on the protein ladder. The membranes were washed with a TBS-T wash buffer (0.1% Tween-20 in 1×PBS) 3 times for 5 minutes. Subsequently, they were blocked in 5% BSA (w/v) in wash buffer for 1 hour and incubated with the appropriate primary antibodies in 5% BSA (w/v) in wash buffer at 4° C. overnight. The membranes were washed with a wash buffer 3 times for 7 minutes. […] Immune complexes were detected with Luminata HRP substrates and analysed using enhanced chemiluminescence imaging. […]

[15] = MTT assay, exposure time 72 hours

Compound: CN(C)C1=[NH+][Au-]2([NH]C(N)=N1)[c]1ccccc1-c1cccc[n+]12 (centres unmarked) [1met*]
IC50 [1]: 0.0012 ± 0.0005 µM

Compound: N.N.[Cl][Pt][Cl] [Cisplatin]
EC50 ([2]; read-out: EC50 AC10, MTT assay, exposure time 72 hours): 10 ± 2 µM | RF (Resistance Factor) [3]: 18 | EC50 [3, 15]: 11 ± 2 µM | apoptotic cell population [4]: markedly lower | EC50 [5, 15]: 0.6 ± 0.05 µM | EC50 [6]: 52 ± 7 µM | EC50 [7, 15]: 27 ± 8 µM

Compound: [Cl][Au-]1([Cl])[c]2ccccc2-c2cccc[n+]21 [Compound 1, (2-phenylpyridine)AuCl2]
RF (Resistance Factor) [3]: 2 | EC50 [3, 15]: 4 ± 0.8 µM | apoptotic cell population [4]: significantly higher | EC50 [5, 15]: 2 ± 0.4 µM | Cellular accumulation MDA-MB-231 [8]: 0.36 ± 0.10 nmol Au/mg protein | EC50 [7, 15]: 7.8 ± 1.7 µM

Compound: NC1=NC(NCCc2ccccc2)=[NH+][Au-]2([NH]1)[c]1ccccc1-c1cccc[n+]12 (centres unmarked) [Compound 1phen]
apoptotic cell population [4]: no changes in apoptotic population | stability, detection of molecular ion [M]+ [9]: not detected after 1 hour incubation | IC50 [1]: 0.0031 ± 0.0015 µM | reactivity towards GSH / ligand release in words [10]: release of phenformin was detected; also recorded: Only the peak at m/z 206.1622, which corresponds to free phenformin, was observed | cytotoxicity in words ([7]; tested cancer cell lines, MTT 72 h): least cytotoxic representative of this series

Cellular accumulation MDA-MB-231 [8]: 0.14 ± 0.03 nmol Au/mg protein
Compound: [Cl][Au-]1([Cl])[c]2ccccc2Cc2cccc[n+]21 [Compound 2, (2-benzylpyridine)Au^IIICl2]
RF (Resistance Factor) [3]: 1 | EC50 [3, 15]: 7.2 ± 1.5 µM | EC50 [5, 15]: 6.5 ± 0.8 µM | EC50 [7, 15]: 7.1 ± 0.4 µM

Compound: CN(C)C1=[NH+][Au-]2([NH]C(N)=N1)[c]1ccccc1Cc1cccc[n+]12 (centres unmarked) [Compound 2met]
stability, detection of molecular ion [M]+ [9]: stable for 24 hours | IC50 [1]: 0.00055 ± 9e-05 µM | reactivity towards GSH / ligand release in words [10]: stable both in the absence and presence of GSH; also recorded: did not significantly change over time

Cellular accumulation MDA-MB-231 [8]: 0.14 ± 0.05 nmol Au/mg protein
Compound: O=C1c2cccc[c]2[Au-]([Cl])([Cl])[n+]2ccccc21 [Compound 3, (2-benzoylpyridine)Au^IIICl2]
RF (Resistance Factor) [3]: 1 | EC50 [3, 15]: 9.1 ± 2.9 µM | EC50 [5, 15]: 8.6 ± 1.7 µM | EC50 [7, 15]: 19 ± 3 µM

redox activity in words [13]: did not show any redox activity
Compound: CN(C)C(=N)N=C(N)N [Metformin]
cytotoxicity in words [11]: devoid of cytotoxicity | anticancer effects in an MDA-MB-231 mammary fat model [12]: negligible | EC50 ([3]; Homo sapiens, A2780cisR, 72 h): > 1000 µM | apoptotic cell population [4]: markedly lower | EC50 ([5]; Homo sapiens, A2780, 72 h): > 1000 µM | EC50 ([7]; Homo sapiens, MDA-MB-231, 72 h): > 1000 µM

Compound: [H]/N=C(/N)N/C(=N/[H])NCCc1ccccc1 [Phenformin]
EC50 ([3]; Homo sapiens, A2780cisR, 72 h): 246 ± 24 µM | EC50 ([5]; Homo sapiens, A2780, 72 h): 104 ± 21 µM | EC50 ([7]; Homo sapiens, MDA-MB-231, 72 h): 608 ± 23 µM

Compound: COc1cccc2c1C(=O)c1c(O)c3c(c(O)c1C2=O)C[C@@](O)(C(=O)CO)C[C@@H]3O[C@H]1C[C@H](N)[C@H](O)[C@H](C)O1 [doxorubicin]
IC50 ([2]; read-out: IC50 value in AC10 cells (heart toxicity)): 2.3 ± 0.2 µM

Compound: [Au^III(2-phenylpyridine)(metformin)]PF6 [Compound 1met]
AMPK and mTOR phosphorylation [14]: dose-dependent increase of AMPK phosphorylation and decrease of mTOR phosphorylation
